{"source": "paper PMC10756276", "about": "“Highly specific σ2R/TMEM97 ligand FEM-1689 alleviates neuropathic pain and inhibits the integrated stress response” (Proceedings of the National Academy of Sciences of the …, 2023)", "key": {"5HT1D": {"target": "5HT1D (Homo sapiens, UniProt P28221)", "sequence (P28221 whole entry)": "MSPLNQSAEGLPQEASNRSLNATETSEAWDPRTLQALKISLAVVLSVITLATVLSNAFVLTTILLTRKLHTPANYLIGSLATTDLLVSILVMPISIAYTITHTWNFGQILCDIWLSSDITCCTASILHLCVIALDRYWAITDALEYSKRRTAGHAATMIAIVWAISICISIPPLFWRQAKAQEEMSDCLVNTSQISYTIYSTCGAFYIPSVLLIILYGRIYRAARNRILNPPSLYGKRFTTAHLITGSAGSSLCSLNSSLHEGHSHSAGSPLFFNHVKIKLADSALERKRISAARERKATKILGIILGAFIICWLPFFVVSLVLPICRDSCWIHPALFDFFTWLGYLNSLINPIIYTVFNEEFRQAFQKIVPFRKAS", "test": "PDSP competitive binding assay", "conditions": "10 µM test article; read-out: Ki: primary assay inhibition of radioligand binding, 5HT1D"}, "Alpha1d": {"target": "T1, Alpha1d (Homo sapiens, UniProt P25100)", "T1 construct": "purchased NIMH Psychoactive Drug Screening Program (PDSP), University of North Carolina at Chapel Hill", "T1 sequence (P25100 whole entry)": "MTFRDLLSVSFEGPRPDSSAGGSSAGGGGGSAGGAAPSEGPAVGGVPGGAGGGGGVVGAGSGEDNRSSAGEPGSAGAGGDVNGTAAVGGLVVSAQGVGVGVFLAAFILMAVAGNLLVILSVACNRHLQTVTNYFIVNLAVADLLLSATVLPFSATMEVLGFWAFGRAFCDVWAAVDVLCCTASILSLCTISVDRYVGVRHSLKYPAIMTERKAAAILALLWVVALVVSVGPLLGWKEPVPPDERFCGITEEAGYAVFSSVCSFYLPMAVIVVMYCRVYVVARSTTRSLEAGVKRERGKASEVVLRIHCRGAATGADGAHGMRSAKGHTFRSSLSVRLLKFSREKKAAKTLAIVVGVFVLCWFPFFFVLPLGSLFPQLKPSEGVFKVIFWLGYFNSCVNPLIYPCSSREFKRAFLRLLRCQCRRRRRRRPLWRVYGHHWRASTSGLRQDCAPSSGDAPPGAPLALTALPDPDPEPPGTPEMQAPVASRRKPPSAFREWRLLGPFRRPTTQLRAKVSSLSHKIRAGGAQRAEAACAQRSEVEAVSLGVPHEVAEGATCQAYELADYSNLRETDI", "test": "PDSP competitive binding assay", "conditions": "10 µM test article; read-out: Ki: primary assay inhibition of radioligand binding, Alpha1d"}, "D2": {"target": "D2 (Homo sapiens, UniProt P14416)", "sequence (P14416 whole entry)": "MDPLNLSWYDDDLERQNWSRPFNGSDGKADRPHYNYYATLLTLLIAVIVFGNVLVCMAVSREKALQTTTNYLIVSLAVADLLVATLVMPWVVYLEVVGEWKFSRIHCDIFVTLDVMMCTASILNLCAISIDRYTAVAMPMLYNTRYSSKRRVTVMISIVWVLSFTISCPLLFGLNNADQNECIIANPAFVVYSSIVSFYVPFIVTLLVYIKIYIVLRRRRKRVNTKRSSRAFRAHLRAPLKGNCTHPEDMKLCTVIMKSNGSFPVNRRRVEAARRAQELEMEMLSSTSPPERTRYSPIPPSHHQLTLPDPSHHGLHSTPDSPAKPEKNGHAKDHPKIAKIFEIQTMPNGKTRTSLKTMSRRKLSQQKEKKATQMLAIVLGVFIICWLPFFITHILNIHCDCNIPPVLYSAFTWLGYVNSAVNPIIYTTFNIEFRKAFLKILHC", "test": "PDSP competitive binding assay", "conditions": "10 µM test article; read-out: Ki: primary assay inhibition of radioligand binding, D2"}, "H1": {"target": "T2, H1 (Homo sapiens, UniProt P35367)", "T2 construct": "purchased NIMH Psychoactive Drug Screening Program (PDSP), University of North Carolina at Chapel Hill", "T2 sequence (P35367 whole entry)": "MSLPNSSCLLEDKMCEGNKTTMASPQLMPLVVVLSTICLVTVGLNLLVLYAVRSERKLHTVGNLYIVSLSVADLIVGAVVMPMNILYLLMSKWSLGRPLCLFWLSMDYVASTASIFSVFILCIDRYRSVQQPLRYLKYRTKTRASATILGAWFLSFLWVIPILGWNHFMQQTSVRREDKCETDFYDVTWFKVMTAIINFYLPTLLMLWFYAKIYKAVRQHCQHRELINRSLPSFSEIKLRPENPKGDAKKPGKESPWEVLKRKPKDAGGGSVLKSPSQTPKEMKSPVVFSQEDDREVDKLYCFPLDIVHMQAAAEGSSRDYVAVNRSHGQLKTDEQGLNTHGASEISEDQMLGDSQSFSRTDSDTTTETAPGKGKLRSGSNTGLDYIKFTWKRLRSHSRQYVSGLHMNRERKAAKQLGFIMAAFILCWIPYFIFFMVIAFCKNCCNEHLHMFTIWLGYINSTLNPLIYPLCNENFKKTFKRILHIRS", "test": "PDSP competitive binding assay", "conditions": "10 µM test article; read-out: Ki: primary assay inhibition of radioligand binding, H1"}, "M4": {"target": "T3, M4 (Homo sapiens, UniProt P08173)", "T3 construct": "purchased NIMH Psychoactive Drug Screening Program (PDSP), University of North Carolina at Chapel Hill", "T3 sequence (P08173 whole entry)": "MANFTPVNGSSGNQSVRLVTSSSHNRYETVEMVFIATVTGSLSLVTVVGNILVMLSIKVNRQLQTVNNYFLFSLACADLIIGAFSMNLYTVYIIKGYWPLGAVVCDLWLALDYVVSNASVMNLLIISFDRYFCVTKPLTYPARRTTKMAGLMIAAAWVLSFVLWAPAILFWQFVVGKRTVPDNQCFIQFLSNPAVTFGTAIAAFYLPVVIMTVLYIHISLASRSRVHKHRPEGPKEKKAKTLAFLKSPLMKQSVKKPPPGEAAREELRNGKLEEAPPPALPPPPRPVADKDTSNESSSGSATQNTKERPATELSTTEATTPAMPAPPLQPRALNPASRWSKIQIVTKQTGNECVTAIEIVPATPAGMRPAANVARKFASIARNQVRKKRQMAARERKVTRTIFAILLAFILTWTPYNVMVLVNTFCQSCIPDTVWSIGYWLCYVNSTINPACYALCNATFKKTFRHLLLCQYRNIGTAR", "test": "PDSP competitive binding assay", "conditions": "10 µM test article; read-out: Ki: primary assay inhibition of radioligand binding, M4"}, "MOR": {"target": "MOR (Homo sapiens, UniProt P35372)", "sequence (P35372 whole entry)": "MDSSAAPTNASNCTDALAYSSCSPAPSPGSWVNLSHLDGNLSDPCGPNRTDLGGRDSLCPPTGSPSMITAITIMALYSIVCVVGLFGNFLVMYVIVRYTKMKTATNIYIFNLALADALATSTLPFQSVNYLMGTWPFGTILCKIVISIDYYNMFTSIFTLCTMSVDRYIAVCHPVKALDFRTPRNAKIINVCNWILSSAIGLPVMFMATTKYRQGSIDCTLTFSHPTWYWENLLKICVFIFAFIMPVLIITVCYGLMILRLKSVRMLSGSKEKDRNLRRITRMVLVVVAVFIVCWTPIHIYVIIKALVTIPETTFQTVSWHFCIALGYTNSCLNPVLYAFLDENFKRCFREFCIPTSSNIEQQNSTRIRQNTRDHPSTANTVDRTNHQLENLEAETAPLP", "test": "PDSP competitive binding assay", "conditions": "10 µM test article; read-out: Ki: primary assay inhibition of radioligand binding, MOR"}, "mouse DRG neurons": {"tested_on": "mouse DRG neurons", "test": "Neurite outgrowth, Sholl analysis", "type": "cell-based", "conditions": "100 nM, wild-type neurons", "protocol": "Sholl analysis was performed using the Neuroanatomy plugin in ImageJ according to the authors’ recommendations ([77]). Only solitary cells were used for analysis. The area under the curve was calculated using GraphPad Prism. More details are available in SI Appendix. […]\ngently layered onto 3 mL of 10% bovine serum albumin (BSA, BioPharm #71- 040-002) in HBSS in a 15 ml falcon tube. T his BSA gradient containing the cells was centrifuged at 900g for 5 min at room temperatur e.\nThe pellet containing the cells was resuspended in Br ainPhys media (STEMCell #05790) containing 2% […]\n1% Gluta Max (Gibco # 350 5 0061). Hu man DRG ne uron s were plated a nd grown o n glass coverslips coate d with po ly-D-lysine (Sigma #P7405). C ultured D RG neurons were plated for 24 hours before being treated.\nMethylglyoxal (Sigma- Aldrich #M0252) and F EM- 1689 were serially diluted in media.\nMouse samples - DRG cultures […]\nanesthesia and decapitated. […]\nsection above with minor differences.\nMouse DRG neurons were grown in\nSAS-0132 and DKR-1677 were […]\ndissolved in 100% DMSO to a final concentr ation of 200mM and stored at - 20 °C. and DKR-1677 were serially diluted in media. […]\nCultured mouse DRG neur ons from wild- type and TMEM97KO animals were treated w ith either vehicle or FEM-1689 (100 nM). […] The area under the curve was calculated using Graph Pad […]"}, "NET": {"target": "NET (Homo sapiens, UniProt P23975)", "sequence (P23975 whole entry)": "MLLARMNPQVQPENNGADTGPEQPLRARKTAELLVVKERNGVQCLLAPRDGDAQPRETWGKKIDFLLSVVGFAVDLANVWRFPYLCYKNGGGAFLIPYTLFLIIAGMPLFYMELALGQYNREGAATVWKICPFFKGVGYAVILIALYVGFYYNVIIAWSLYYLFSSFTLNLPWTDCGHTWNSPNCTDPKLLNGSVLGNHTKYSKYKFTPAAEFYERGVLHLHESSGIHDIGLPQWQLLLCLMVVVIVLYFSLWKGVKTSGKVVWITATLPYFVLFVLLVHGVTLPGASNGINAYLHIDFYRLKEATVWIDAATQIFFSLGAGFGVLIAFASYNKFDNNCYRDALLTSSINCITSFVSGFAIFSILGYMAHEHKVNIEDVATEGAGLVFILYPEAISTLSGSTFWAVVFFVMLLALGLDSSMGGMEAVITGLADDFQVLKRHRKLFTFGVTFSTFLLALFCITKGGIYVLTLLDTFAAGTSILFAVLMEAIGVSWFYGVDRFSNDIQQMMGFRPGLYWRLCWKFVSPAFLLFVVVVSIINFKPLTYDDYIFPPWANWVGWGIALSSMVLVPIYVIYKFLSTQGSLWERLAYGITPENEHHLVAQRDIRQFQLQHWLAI", "test": "PDSP competitive binding assay"}, "σ2R/TMEM97": {"target": "σ2R/TMEM97 (Homo sapiens, UniProt Q5BJF2)", "sequence (Q5BJF2 whole entry)": "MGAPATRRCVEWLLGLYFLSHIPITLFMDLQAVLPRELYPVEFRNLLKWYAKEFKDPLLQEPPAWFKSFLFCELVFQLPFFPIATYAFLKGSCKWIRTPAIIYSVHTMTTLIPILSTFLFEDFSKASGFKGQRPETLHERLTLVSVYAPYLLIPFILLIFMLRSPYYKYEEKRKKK", "test": "Competition binding with [3H]-ditolylguanidine in presence of (+)-pentazocine (NIMH PDSP)"}}, "note": "“Also recorded” adds a separate entry of the source. Read-outs that look alike come from different tables or passages of the source.", "data": [{"smiles": "OCCCN1CC[C@@H]2C[C@H]1c1cc(-c3ccc(C(F)(F)F)cc3)ccc12", "note": "[FEM-1689]", "values": [{"measurement": "inhibition at 10 µM", "setting": "5HT1D", "result": "< 50", "unit": "%"}, {"measurement": "inhibition at 10 µM", "setting": "Alpha1d", "result": "< 50", "unit": "%"}, {"measurement": "inhibition at 10 µM", "setting": "D2", "result": "< 50", "unit": "%"}, {"measurement": "inhibition at 10 µM", "setting": "H1", "result": "< 50", "unit": "%"}, {"measurement": "inhibition at 10 µM", "setting": "M4", "result": "< 50", "unit": "%"}, {"measurement": "inhibition at 10 µM", "setting": "MOR", "result": "< 50", "unit": "%"}, {"measurement": "neurite outgrowth (Sholl analysis)", "setting": "mouse DRG neurons", "result": "increase in the number and complexity of neurites in wild-type neurons; also recorded: promoted neurite outgrowth in wild-type neurons"}, {"measurement": "Ki", "setting": "NET; Ki, NET, Run 1", "result": 0.668, "unit": "µM"}, {"measurement": "Ki", "setting": "NET; Ki, NET, Run 2", "result": 0.221, "unit": "µM"}, {"measurement": "Ki", "setting": "NET; Ki, NET, Run 3", "result": 0.209, "unit": "µM"}, {"measurement": "Ki", "setting": "NET; Ki, NET, Run 4", "result": 0.519, "unit": "µM"}, {"measurement": "selectivity for σ2R/TMEM97 vs NET", "setting": "NET; ratio of Ki", "result": 24, "unit": "fold"}, {"measurement": "Ki", "setting": "NET; read-out: NET Ki, average of four Ki determinations", "result": "0.405 ± 0.227", "unit": "µM"}, {"measurement": "Ki", "setting": "σ2R/TMEM97", "result": 0.0112, "unit": "µM"}, {"measurement": "Ki", "setting": "σ2R/TMEM97; read-out: σ2R/TMEM97 Ki, averages ± SD", "result": "0.017 ± 0.008", "unit": "µM"}]}]}
